# Source: patent US11491127B2, “Therapeutic use of compounds” (UCL BUSINESS LTD, priority 2010, dated 2022)
# Experiments:
# [1] = system: phosphoinositide (PIP and PIP2) turnover in Dictyostelium AX2 cells; assay: Dictyostelium phospholipid labelling (PIP and PIP2 turnover); format: cell-based, Dictyostelium discoideum; conditions: wild type Dictyostelium; for activity at 500 µM: Dictyostelium, 0.1 h, read-out: PIP Level (% control), Table 1, 0.5 mM compound, 3 min pre-treatment + 6 min labelling
# Experimental: Phospholipid labelling was quantified using a Typhoon phosphor-imager. Even loading was determined using total lipid stain with copper sulphate.
# [2] = system: inositol trisphosphate (InsP3) levels in Dictyostelium; conditions: Eickholt et al., 2005; cited from earlier work
# [3] = system: inositol levels in Dictyostelium cells; assay: Inositol levels in treated Dictyostelium cells; format: cell-based, Dictyostelium discoideum; conditions: time period causing phosphoinositide attenuation (9 min)
# Experimental: Following a 6 min incubation, labelling solution was removed and cells were lysed in acidified methanol and phospholipids were separated as previously detailed (Williams et al., 1999). Phospholipid labelling was quantified using a Typhoon phosphor-imager. Even loading was determined using total lipid stain with copper sulphate. Inositol levels were measured from five hour developed cells (similar to phospholipid labelling), following lyophilisation, as previously described (Maslanski & Busa, 1990).
# [4] = system: PTZ-induced epileptiform activity in entorhinal cortex-hippocampal slices; assay: In vitro PTZ acute seizure model, entorhinal cortex-hippocampus slices; format: cell-based, rat; conditions: PTZ 2 mM, [K+] 6 mM; compounds equimolar 1 mM; 30 to 40 minutes after application
# Experimental: (§1) The rats (p21) were decapitated after killing by intraperitoneal injection with an overdose of pentobarbitone (500 mg/kg). The brain was removed and placed in ice-cold sucrose solution in mM: NaCl 87, KCl 2.5, MgCl2 7, CaCl2 0.5, NaH2PO4 1.25, sucrose 75, glucose 25, equilibrated with 95% 02/5% CO2 (pH 7.4). Horizontal combined entorhinal cortex-hippocampus slices (350 μm) were prepared with a Leica vibratome (Leica V T1200S) and were then stored in an interface chamber that contained artificial cerebrospinal fluid solution (aCSF) containing in mM: NaCl 119, KCl 2.5, MgSO4 4, CaCl2 4, NaHCO326.2, NaH2PO4 1, glucose 11, and gassed with 95% O2/5% CO2. They were stored for over one hour before being transferred to a submersion recording chamber continually perfused with carbogenated aCSF for recording. Field potential recordings were made by placing glass microelectrodes (˜1-2 MΩ) filled with aCSF solution in stratum radiatum of CA1. Bipolar stimulating electrodes were positioned in the Schaffer collateral/commissural fibre pathway in stratum radiatum to confirm slice viability. In the PTZ acute seizure model, PTZ (2 mM) was added to the perfusate and [K+] was increased to 6 mM in order to induce epileptiform activity (Armand et al., 1998). In the low Mg^2+ acute seizure model, Mg^2+ free aCSF was applied to generate rhythmic short recurrent discharges. Novel anticonvulsants were applied once the frequency and amplitude of the epileptiform discharges were stable over a period of 10 min. Anticonvulsant effects were evaluated by measuring the variation of frequency of the discharges every minute. The data acquired from the 30 to 40 minutes after application novel anticonvulsants were compared by ANOVA followed by post-hoc testing using Tukey test, using SPSS statistical analysis.
# [5] = system: self-sustaining status epilepticus in Sprague Dawley rats; assay: In vivo status epilepticus (perforant path stimulation); parameters: species or system rat; conditions: 400 mg/kg
# Experimental: This method has been described in detail previously (Walker et al., 1999). In brief, male Sprague Dawley rats […] were anesthetized with 1-2% isoflurane in O2. An earth electrode was positioned subcutaneously, and a monopolar recording electrode was implanted stereotactically into the right hippocampus (coordinates, 2.5 mm lateral and 4 mm caudal from bregma). A bipolar stimulating electrode was implanted in the right hemisphere and advanced into the angular bundle (coordinates, 4.4 mm lateral and 8.1 mm caudal from bregma) to stimulate the perforant path. The depths of the electrodes were adjusted to maximize the slope of the dentate granule cell field potential (Guo et al., 1999). The electrodes were held in place with dental acrylic and skull screws. The animals were allowed to recover from anaesthesia. Seven days later, the perforant path was electrically stimulated with 4-5 mA 50 μsec monopolar pulses at 20 Hz for 2 hr; this induced self-sustaining status epilepticus. After 10 min of self-sustaining status epilepticus, compounds or vehicle were administered and the behavioural seizures and EEG were monitored for 3 hours. At this point diazepam (10 mg/kg) was administered to all animals to stop the status epilepticus. Groups were compared by ANOVA followed by post-hoc testing using Tukey test, using SPSS.
# [6] = system: low magnesium-induced burst discharges in entorhinal cortex-hippocampal slices; assay: In vitro low Mg2+ acute seizure model, entorhinal cortex-hippocampus slices; format: cell-based, rat; conditions: 1 mM, 30-40 minutes after application
# Experimental: as §1, with “In the low Mg^2+ acute seizure model, Mg^2+ free aCSF was applied to generate rhythmic short recurrent discharges. Novel anticonvulsants were applied once the frequency and amplitude of the epileptiform discharges were stable over a period of 10 min.” left out, “The data acquired from the 30 to 40 minutes after application novel anticonvulsants were compared by ANOVA followed by post-hoc testing using Tukey test, using SPSS statistical analysis.” left out
# [7] = system: release of 3H arachidonic acid / palmitic acid radiolabel from Dictyostelium cells; assay: Fatty acid release (3H radiolabel release from labelled cells); format: cell-based, Dictyostelium discoideum
# [8] = system: uptake of 3H arachidonic acid / palmitic acid into Dictyostelium cells; assay: Fatty acid uptake (3H radiolabel incorporation into cells); format: cell-based, Dictyostelium discoideum; conditions: 3H-AA; FIG. 9
# [9] = system: self-sustaining status epilepticus in Sprague Dawley rats; conditions: previously shown (Chang et al., 2009); cited from earlier work
# [10] = molecular target: T1, human myo-inositol synthase (Homo sapiens, UniProt Q9NPH2); conditions: Shaltiel et al., 2004, 2007a; cited from earlier work
# T1 sequence (Q9NPH2 1-558): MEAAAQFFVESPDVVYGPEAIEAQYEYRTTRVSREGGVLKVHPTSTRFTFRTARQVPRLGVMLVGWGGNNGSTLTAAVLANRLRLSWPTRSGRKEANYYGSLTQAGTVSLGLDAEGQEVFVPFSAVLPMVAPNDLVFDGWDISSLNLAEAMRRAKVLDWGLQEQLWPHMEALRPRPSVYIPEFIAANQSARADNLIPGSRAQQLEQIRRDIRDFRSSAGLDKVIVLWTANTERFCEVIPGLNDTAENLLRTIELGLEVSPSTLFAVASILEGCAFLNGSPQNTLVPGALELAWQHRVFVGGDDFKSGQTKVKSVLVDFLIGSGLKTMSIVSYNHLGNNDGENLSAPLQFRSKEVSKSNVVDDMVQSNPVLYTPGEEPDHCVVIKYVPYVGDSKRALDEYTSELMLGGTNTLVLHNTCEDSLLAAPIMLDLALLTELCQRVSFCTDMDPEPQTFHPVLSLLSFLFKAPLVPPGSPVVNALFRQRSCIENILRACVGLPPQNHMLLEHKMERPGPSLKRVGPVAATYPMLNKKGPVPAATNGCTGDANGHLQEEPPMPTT
smiles,measurement,setting,value
CCC=C(C)C(=O)O [2-methyl-2-pentenoic acid],activity at 500 µM,[1],14.8%
same,InsP3 depletion,[2],strong InsP3 depletion
CCCCC(C)CCC(=O)O (centres unmarked) [4-methyloctanoic acid],activity at 500 µM,[1],12%
same,reduction of PIP2 signalling,[1]; Table 1,93%
same,reduction of PIP signalling,[1]; Table 1,88%
same,reduction in inositol levels,[3],do not acutely deplete inositol
same,frequency of epileptiform discharges (seizure discharge frequency),[4],49.1±4.4%
same,animals in which status epilepticus terminated (spike frequency of less than 1 Hz),[5],all
same,seizure control in words,[5]; 3 hour test period,protected against seizures over the test period
same,animals in which seizures completely stopped,"[5]; after 2 hours, 7 animals per group",7 animals
same,animals in which seizure stop was maintained,[5]; by three hours,five out of seven
same,mean spike frequency,[5]; first hour,39.3±11.3%
same,mean spike frequency,[5]; second hour,18.1±10.3%
same,mean spike frequency,[5]; third hour,26.9±12.3%
same,frequency of low magnesium-induced burst discharges,[6],almost abolished
same,frequency of low magnesium-induced burst discharges,[6]; listed as 4-MO,1.6±3.1 % of baseline
same,inhibitory effect on radiolabel release,"[7]; 3H-AA, FIG. 9",weak
same,activity at 500 µM,"[7]; Dictyostelium, 0.5 h, Table 3, 3H-AA labelled cells, 30 min, 0.5 mM treatment, read-out: AA release [% of control]",66%
same,effect on 3H-AA uptake compared with VPA,[8],reduced effect on uptake
O=C1NC(=O)C(c2ccccc2)(c2ccccc2)N1 [phenytoin],response of the status epilepticus model,[9],resistant
"CCCC(CCC)C(N)=O [valpromide, 2-propylpentamide, reference compound]",activity at 500 µM,[1],69.3%
same,inhibition of human myo-inositol synthase,[10],weak inhibition
same,radiolabel release activity relative to control,"[7]; Table 3, 30 min, 0.5 mM",virtually no inhibition
